According to the supplement of paper PMC10307832:

Assays:
Test in all cases: relative viability (nuclei count vs DMSO), 5 days (fraction); higher = more cells survive
IDH-C35 + Palbociclib = compound: Cc1ccccc1C(C(=O)NC1CCCCC1)N(C(=O)Cn1ccnc1C)c1cccc(F)c1 [IDH-C35] + CC(=O)c1c(C)c2cnc(Nc3ccc(N4CCNCC4)cn3)nc2n(C2CCCC2)c1=O [Palbociclib] (partner 0.5 µM)
How it was run: (§1)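 Relative viability is defined as nuclei in treated wells over nuclei in vehicle wells. Duplicate plates were run and medians reported. Lung cancer cell lines in 1536-well plates were dosed by pin tool one day after seeding, with one drug or with a fixed anchor-drug dose plus five library-drug doses (not always all listed) in √10 steps, and nuclei were counted after 5 days.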

[1] = compound: CC1=C(C(=NN1)C)CC2=C(C3=C(S2)N(C(=O)N(C3=O)C)CC(C)C)C(=O)N4C[C@@H](CO4)O + CC(=O)c1c(C)c2cnc(Nc3ccc(N4CCNCC4)cn3)nc2n(C2CCCC2)c1=O [Palbociclib] (partner 0.5 µM)
How it was run: as §1

[2] = compound: CC1=C(C(=NN1)C)CC2=C(C3=C(S2)N(C(=O)N(C3=O)C)CC(C)C)C(=O)N4C[C@@H](CO4)O + CCNC(=O)c1noc(-c2cc(C(C)C)c(O)cc2O)c1-c1ccc(CN2CCOCC2)cc1 [Luminespib] (partner 0.01 µM)
How it was run: as §1

[3] = compound: CC1=C(C(=NN1)C)CC2=C(C3=C(S2)N(C(=O)N(C3=O)C)CC(C)C)C(=O)N4C[C@@H](CO4)O + NC(=O)Nc1cc(-c2cccc(F)c2)sc1C(=O)N[C@H]1CCCNC1 [AZD7762] (partner 0.2 µM)
How it was run: as §1

Row | Cell Line | relative viability (IDH-C35 + Palbociclib; first compound 0.08 µM) | relative viability (IDH-C35 + Palbociclib; first compound 0.253 µM) | relative viability (IDH-C35 + Palbociclib; first compound 0.8 µM) | relative viability (IDH-C35 + Palbociclib; first compound 2.53 µM) | relative viability (IDH-C35 + Palbociclib; first compound 8 µM) | relative viability ([1]; first compound 0.0025 µM) | relative viability ([1]; first compound 0.007906 µM) | relative viability ([1]; first compound 0.025 µM) | relative viability ([1]; first compound 0.07906 µM) | relative viability ([1]; first compound 0.25 µM) | relative viability ([2]; first compound 0.0025 µM) | relative viability ([2]; first compound 0.007906 µM) | relative viability ([2]; first compound 0.025 µM) | relative viability ([2]; first compound 0.07906 µM) | relative viability ([2]; first compound 0.25 µM) | relative viability ([3]; first compound 0.0025 µM) | relative viability ([3]; first compound 0.007906 µM) | relative viability ([3]; first compound 0.025 µM) | relative viability ([3]; first compound 0.07906 µM) | relative viability ([3]; first compound 0.25 µM)
1 | EKVX | 0.402 | 0.365 | 0.385 | 0.356 | 0.373 | 0.475 | 0.44 | 0.417 | 0.368 | 0.39 | 0.948 | 0.955 | 0.852 | 0.764 | 0.928 | 0.803 | 0.721 | 0.761 | 0.517 | 0.725
2 | NCI-H2087 | 0.225 | 0.211 | 0.24 | 0.308 | 0.228 | 0.244 | 0.264 | 0.193 | 0.16 | 0.223 | 0.142 | 0.217 | 0.175 | 0.168 | 0.16 | 1.43 | 1.37 | 1.15 | 1.13 | 1.3
3 | LK-2 | 0.558 | 0.717 | 0.683 | 0.746 | 0.74 | 0.642 | 0.715 | 0.646 | 0.626 | 0.457 | 0.219 | 0.148 | 0.223 | 0.202 | 0.186 | 0.304 | 0.252 | 0.298 | 0.129 | 0.134
4 | NCI-H1437 | 0.346 | 0.313 | 0.284 | 0.316 | 0.294 | 0.357 | 0.348 | 0.284 | 0.296 | 0.303 | 1.13 | 1.14 | 1.04 | 1.19 | 1.16 | 1.21 | 1.07 | 1.09 | 1.11 | 1.14
5 | ABC-1 | 0.765 | 0.819 | 0.491 | 0.785 | 0.824 | 0.72 | 0.445 | – | 0.638 | 0.729 | – | 0.606 | – | 0.349 | 0.531 | 0.777 | 0.631 | 0.732 | 0.878 | 0.841
6 | SW 900 | 0.487 | 0.568 | – | 0.522 | 0.506 | 0.541 | 0.583 | 0.624 | 0.497 | 0.651 | 0.186 | 0.182 | 0.16 | 0.189 | 0.15 | 0.604 | 0.706 | 0.628 | 0.58 | 0.449
7 | NCI-H838 | 0.24 | 0.223 | 0.229 | 0.22 | 0.211 | 0.206 | 0.193 | 0.182 | 0.275 | 0.182 | 0.295 | 0.265 | 0.312 | 0.273 | 0.239 | 0.908 | 0.859 | 0.884 | 0.835 | 0.896
8 | A-427 | 0.529 | 0.527 | 0.511 | 0.512 | 0.545 | 0.524 | 0.514 | 0.515 | 0.548 | 0.578 | 0.949 | 1.19 | 0.921 | 1.03 | 0.957 | 0.73 | 0.691 | 0.752 | 0.847 | 0.677
